# Counter-ions that a name gives are not always drawn.
# Tests used:
# [1] = system: calf skin collagen; assay: Calf skin collagen crosslinking by glucose: cyanogen bromide fragments on SDS-polyacrylamide gel; format: biochemical; conditions: 140 mM glucose, 200 mM aminoguanidine, 3 weeks, 35° C.; Lane B
# Procedure: Collagen from samples of calf skin were extracted into acetic acid and then precipitated with 0.6 M sodium chloride. These procedures removed from the solution skin collagen that was already permanently crosslinked or denatured. Native collagen fibrils were reformed by dialysis against 0.02M phosphate buffer, and these were incubated for 3 weeks at 35° C. in the presence of 140 mM glucose and with or without 200 mM aminoguanidine. After incubation, the samples were dialyzed and the degree of crosslinking was determined by two methods. First, the amount of reacted collagen which could be solubilized by treatment in 2% sodium dodecyl sulfate at 100° C. was measured.
# The reacted collagen was further examined by cleaving it into fragments using cyanogen bromide treatment in formic acid, the resulting protein fragments were separated by size by sodium dodecyl sulfate-polyacrylamide gel electrophoresis. After electrophoresis, the protein fragments were identified in the gel using silver staining.
# Referring to FIG. 3B, Lane C contains collagen that was incubated with glucose alone. It is noted that a large amount of high molecular weight fragments form a continuous band at the top of the gel, indicating a large range of high molecular weight fragments. Some of this material could not enter the gel and is present in the […] stacking gel above the gradient gel. […]
# [2] = system: normal and diabetic rats; assay: IgG bound to glomerular basement membranes, enzyme immunoassay; format: in vivo, rat; conditions: 25 mg/kg daily intraperitoneal, 16 weeks
# Procedure: To measure the level of advanced glycosylation end products in vivo, the kidneys of rats were examined for serum proteins which had become attached to glomerular basement membranes. This was determined to be a good model in which to study this process as it is known that significant kidney pathology occurs in untreated diabetes as a result of the buildup of extravasated plasma protein in the extravascular matrix in this organ.
# The experiment consisted of giving both normal and diabetic rats daily intraperitoneal doses of the agent aminoguanidine hydrochloride at a dose of 25 mg per kilogram of body weight, for a period of 16 weeks. […] Diabetes was induced prior to drug therapy with a single dose of streptozotocin. Control animals, both diabetic and normal, received no drug.
# At the end of the agent therapy, animals were sacrificed and the kidneys were removed. Each organ was removed from its capsule and the medulla was removed. […]
# After overnight incubation to allow the antibody to bind to any IgG crosslinked to the glomerular basement membranes, the membranes were pelleted by centrifugation at 3200 rpm for five minutes and were washed free of the unbound antibody-enzyme conjugate with four rinses with PBS plus Tween followed by three rinses with distilled water. […] The reaction was stopped with the addition of 0.2 mL of M sodium hydroxide, and the absorbance at 400 nm was measured.
# [3] = system: demineralized bone matrix particles; assay: Bone differentiation of AGE-modified demineralized bone matrix implanted in rats; format: in vivo, rat
# Procedure: In order to assess the possible role of hyperglycemia-induced matrix modifications in this process, demineralized bone matrix particles from 35 week old normal Long-Evans rats were prepared. Matrix is incubated in phosphate buffered saline alone (PBS), PBS containing various sugar precursors of AGE (PBS−G), and PBS with sugars plus the AGE-inhibitor aminoguanidine (PBS−G+AG). After incubation, the matrix is washed and implanted subcutaneously in normal rats. Twelve days after implantation, ^45CaCl2 is injected to determine implant mineralization, and alkaline phosphatase activity is measured to assess osteoblast function. Duplicate specimens are fixed, embedded and stained for histologic evaluation.
# [4] = system: Streptozotocin-diabetic male Lewis rats; assay: Tail tendon collagen solubility (pepsin), streptozotocin-diabetic rats; format: in vivo, rat; conditions: 9 months; for Collagen Solubility: tail tendon
# Procedure: Streptozotocin-diabetic male Lewis rats were treated for a 9-month time period with daily doses of aminoguanidine hydrochloride of 0, 6.25, 12.5, 25, and 50 mg/kg/day. After the treatment period, collagen in tail tendon fiber was subjected to solubility determination. Ten mg samples were incubated with gentle rocking for 5 hours at 4° C. in 5 ml of 0.5M acetic acid containing 1 mg pepsin. The samples were then centrifuged at 50,000× g for 1 hour, and the soluble and insoluble fraction separated by decanting. Each fraction was hydrolyzed in 6N HCl and total hydroxyproline measured.
# [5] = system: histamine; conditions: in vivo; cited from earlier work
# [6] = system: streptozotocin-diabetic rat; conditions: streptozotocin-diabetic rat model; cited from earlier work
smiles,measurement,setting,value
N=C(N)NN [aminoguanidine hydrochloride],high molecular weight fragments after cyanogen bromide cleavage (gel),[1],no large amount of high molecular weight material
same,IgG bound to glomerular basement membranes,[2]; diabetic rats,the same low level of IgG in normal animals
same,IgG bound to glomerular basement membranes,[2]; normal rats,about the same low level
same,bone differentiation,"[3]; matrix incubated with AGE precursor plus aminoguanidine, implanted subcutaneously, 12 days",80 % of control
same,matrix AGE content (specific fluorescence),[3]; simultaneous incubation of matrix with AGE precursor and aminoguanidine,reduced fluorescence to normal
same,prevention of the diabetes-induced fall in tail tendon collagen solubility,[4]; 6.25 up to 50 mg/kg/day orally,significantly prevented this change in a dose-dependent manner
same,prevention of the diabetes induced cross-linking,[4]; highest dose (50 mg/kg/day orally),80%
same,Collagen Solubility,"[4]; Diabetic, 12.5 mg/kg/day",66.7 ± 1.2%
same,Collagen Solubility,"[4]; Diabetic, 50 mg/kg/day",75.9 ± 0.4%
same,Collagen Solubility,"[4]; Normal, 50 mg/kg/day",88.2 ± 0.2%
same,levels of histamine,[5],increase levels of histamine
same,increased glomerular basement membrane thickness,[6],prevented

# From patent US20020115724A1, “Methods and agents for inhibiting protein aging” (priority 1985, published 2002)
